Among the data in US20240391930A1, “SPIROCYCLIC BICYCLIC MODULATORS OF CHOLESTEROL BIOSYNTHESIS AND THEIR USE FOR PROMOTING REMYELINATION” (GENENTECH, INC., priority 2021, published 2024) are EC50 and Ki values, retold here.

One assay deals with EpiSC-derived OPCs. Kind of assay: In vitro phenotypic screening of OPCs (MBP high-content imaging). Format: cell-based. To be noted: Mus musculus, 72 h; percentage of MBP-positive oligodendrocytes, 3 days, 0.5 nM to 1000 nM; read-out: OPC EC50. The protocol:
(§1) To assess effects of treatments on OPCs, all treatments were assayed in two or more independent platings of epiblast stem cell-derived OPCs (EpiSC). EpiSC-derived OPCs were obtained using in vitro differentiation protocols and culture conditions described previously (Najm et al, 2011, Nature Methods). OPCs were expanded and frozen down in aliquots. OPCs were thawed into growth conditions for at least one passage before use in further assays.
EpiSC-derived OPCs were grown and expanded in poly-L-ornithine (PO) and laminin-coated flasks in N2B27 media (DMEM/F12 (Gibco), N2-MAX (R&D Systems), B-27 (ThermoFisher), and GlutaMax (Gibco)) supplemented with FGF2 ([…], R&D systems, 233-FB-025) and PDGF-AA ([…], R&D systems, 233-AA-050) before harvesting for experiments. The cells were seeded onto poly-L-ornithine or poly-D-lysine coated CellCarrier Ultra plates (PerkinElmer) coated with laminin (Sigma, L2020) at a density of 150,000/cm^2 in N2B27 media without growth factors. For dose-response testing, a 1000× compound stock in dimethyl sulphoxide (DMSO) was added to assay plates, resulting in 8-point dose curves with final concentrations between 1000 nM and 0.5 nM. Positive controls and DMSO vehicle controls were included in each assay plate. Cells were incubated under standard conditions (37° C., 5% CO2) for 3 days and fixed with 4% paraformaldehyde (PFA) in phosphate buffered saline (PBS) for 20 min. Fixed plates were washed with PBS, permeabilized with 0.1% Triton X-100, and blocked with 10% donkey serum (v/v) in PBS for 40 min. Then, cells were labelled with MBP antibodies (Abcam, ab7349; 1:200) for 2 h at room temperature, washed with PBS, and stained with Alexa Fluor conjugated secondary antibodies (1:500) for 45 min. Nuclei were visualized by DAPI staining (Sigma; 1 μg/ml), followed by further PBS washes.
Cells and cell culture plates were imaged on the Operetta High Content Imaging and Analysis system (PerkinElmer). Analysis (PerkinElmer Harmony and Columbus software) began by identifying intact nuclei stained by DAPI. The peri-nuclear region of each cell was then cross-referenced with the […] (MBP) stain to identify oligodendrocyte nuclei, and from this the percentage of oligodendrocytes was calculated.

Assay [1] concerns zymostenol accumulation in EpiSC-derived OPCs (EBP). Kind of assay: GC/MS-based sterol profiling (zymostenol accumulation). In kind it is cell-based. The conditions noted are these: Mus musculus, 24 hours, 8 doses from 0.15 nM to 333 nM, read-out: Zymostenol GCMS EC50. The protocol:
as §1
Sterols were monitored using a modified Folch wash protocol (Hubler et al, 2018, Nature). EpiSC-derived OPCs were plated at 100,000 cells per well in PO- and laminin-coated 96-well plates in N2B27 media without growth factors. After 24 hours, cells were rinsed with saline and plates were frozen. Cholesterol-d7 standard was then added to each well before drying under nitrogen stream and derivatization with 55 μl of bis(trimethylsilyl) trifluoroacetamide. After derivatization, 2 μl were analyzed by gas chromatography/mass spectrometry using an Agilent 5973 Network Mass Selective Detector equipped with a 6890 gas chromatograph system and a HP-5MS capillary column (30 m×0.25 mm×[…]). Samples were analyzed in full scan mode using electron impact ionization; ion fragment peaks were integrated to calculate sterol abundance, and quantitation was relative to cholesterol-d7. The following ion fragments were used to quantitate each metabolite: cholesterol-d7 (465), FF-Mas (482), cholesterol (368), zymostenol (458), zymosterol (456), Desmosterol (456, 343), 7-dehydrocholesterol (456, 325), lanosterol (393), lathosterol (458), 14-dehydrozymostenol (456, 351). […] All standards were obtained from Avanti Polar Lipids unless otherwise indicated. Calibration curves were generated by injecting varying concentrations of sterol standards and maintaining a fixed amount of cholesterol-D7. For normalized zymostenol accumulation results, the total amount of zymostenol measured after drug treatment was divided by the total amount of zymostenol accumulated after 24 hr treatment with 100 nM positive control reference.

For assay [2], the target named is T1, human emopamil binding protein and human 7-dehydrocholesterol reductase (hEBP-DHCR7) (Homo sapiens, UniProt Q15125).
T1 construct: expressed in transfected cells; host or cells: HEK 293 cells, transient transfection with 2 DNA constructs
In words: hEBP-DHCR7 radioligand filtration binding assay. The conditions noted are these: membranes of HEK293 co-expressing hEBP and DHCR7; [3H] 2-thia-6-azaspiro[3.4]octane radioligand; 8 doses 0.06 to 5000 nM. The protocol: Membrane Preparation: human emopamil binding protein and human 7-dehydrocholesterol reductase co-expressing cells were generated by transient transfecting host human embryonic kidney (HEK) 293 cells with 2 DNA constructs containing each protein's coding sequence. Cells were suspension cultured at 37° C. with 5% CO2 in […] 293 Expression Medium (Thermofisher). Whole cell membrane was prepared by harvesting the cell pellet, adding cold membrane buffer (50 mM Tris, pH7.5, lx Roche COMPLETE EDTA-free protease inhibitor cocktail) 10 times volume of the cell pellets weight, lysing cell pellet on ice by using Dounce homogenizer, spinning at 200 g 4° C. for 15 min, collecting supernatant and spinning again at 25000 g 4° C. for 50 min, transferring pellet to Dounce homogenizer, re-suspending pellet by homogenizing in membrane buffer on ice to reach ˜25 mg/mL, then keeping whole cell membrane aliquots at −80° C.
Compounds were prepared in a 96-well U bottom plate using an Echo550 machine and 10 mM compound DMSO stock solution, followed by an 8-dose 5-fold serial dilutions protocol with final testing compound concentration ranging from 0.06 to 5000 nM, with DMSO back fill to 100 nL/well and n=2. […] The UniFilter-96 GF/B plates were pre-treated by adding 50 µl/well of 0.3% (v/v) PEI to UniFilter-96 GF/B plates. The plates were sealed and incubated at 4° C. for 3 hrs. Then, the plates were washed with ice-cold assay buffer 3 times. The radioligand binding assay was prepared by adding assay buffer diluted hEBP-DHCR7 membrane at 66.7 μg/ml×150 l/well into the 96-well compound plate to reach 10 μg membrane per well. Then, the assay buffer diluted [3H]—((S)-6-(2-Methyl-3-(6-(trifluoromethyl)pyridin-3-yl)propyl)-2-thia-6-azaspiro[3.4]octane 2,2-dioxide or (R)-6-(2-Methyl-3-(6-(trifluoromethyl)pyridin-3-yl)propyl)-2-thia-6-azaspiro[3.4]octane 2,2-dioxide) was added at 25 nM×50 l/well. Following this, the plate was centrifuged at 1000 rpm for 30 secs. The plate was then sealed and agitated at 600 rpm at 22° C. for 5 min, and then incubated at 22° C. for 3 hrs. The incubation was stopped by transferring the binding solution to the pre-treated UniFilter-96 GF/B plate, vacuum filtrated, and then washed four times with ice-cold assay buffer. Following this, the plates were dried at 37° C. for 45 min. The plates were then sealed at the bottom. 40 µl/well of scintillation cocktail was added to the plates. A MicroBeta2 microplate counter was then used to read the plate and analyze the data. For reference and test compounds, the results are expressed as % Inhibition, using the normalization equation: N=100−100×(U−C2)/(C1−C2), where U is the unknown value, C1 is the average of high controls, and C2 is the average value of low controls. The IC50 was determined by fitting percentage of inhibition as a function of compound concentrations with Hill equation using XLfit. Results are expressed as hEBP-DHCR7 Ki (uM) in Table 4. Ki was calculated as described above; * indicates isolated isomer or isomers, but that the stereochemistry has not been assigned.

Broadly, the EC50 is the concentration giving half of the maximal effect. For orientation: Ki means a dissociation constant, usually derived from enzyme kinetics or from competition with a known ligand.

T1 sequence (Q15125 whole entry): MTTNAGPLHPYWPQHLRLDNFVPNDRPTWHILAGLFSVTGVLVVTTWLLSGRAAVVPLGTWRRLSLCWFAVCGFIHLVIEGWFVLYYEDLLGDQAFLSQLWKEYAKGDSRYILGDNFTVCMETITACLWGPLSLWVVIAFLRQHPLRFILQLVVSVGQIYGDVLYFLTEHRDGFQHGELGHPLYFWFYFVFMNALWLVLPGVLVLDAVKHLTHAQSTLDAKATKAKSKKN

Turning to `CC(C)(C)n1nc(C(F)(F)F)cc1[C@H]1[C@@H]2C[C@@H](N3CCC4(CC3)CS(=O)(=O)C4)C[C@@H]21` (single isomer, unassigned) [Compound 55], the EC50 turned out to be 3.3 nM in the assay with EpiSC-derived OPCs and 3 nM in assay [1].

On to `O=S1(=O)CC2(CCN([C@H]3C[C@@H]4[C@H](C3)[C@H]4c3cc(C(F)(F)F)nn3CC(F)F)C2)C1` (single isomer, unassigned) [Compound 91*], for which, in assay [2], the Ki was found to be 16.3 nM. The EC50 in assay [1] was determined as 24 nM.

`O=S1(=O)CC2(CCN([C@H]3C[C@@H]4[C@H](C3)[C@H]4c3cc(C(F)(F)F)n(CC(F)F)n3)CC2)C1` (single isomer, unassigned) [Compound 97] showed a Ki in assay [2] of 6.85 nM. Moreover, the EC50 in assay [1] is 22.1 nM.

`CCn1nc(-c2cccnc2)cc1[C@H]1[C@@H]2C[C@@H](N3CCC4(C3)CS(=O)(=O)C4)C[C@@H]21` (single isomer, unassigned) [Compound 64*] came in with a Ki in assay [2] of 203 nM. In addition, the EC50 in assay [1] came out at 44 nM.

`O=S1(=O)CC[C@]2(CCCN([C@@H]3C[C@@H]4[C@H](C3)[C@H]4c3cc(C(F)(F)F)nn3CC(F)F)C2)C1` (single isomer, unassigned) [Compound 87*]: in assay [2], the affinity corresponds to a Ki of 94.6 nM. Further, the EC50 in assay [1] is more than 330 nM.

Take `O=S1(=O)CC[C@@]2(CCCN([C@@H]3C[C@@H]4[C@H](C3)[C@H]4c3cc(C(F)(F)F)nn3CC(F)F)C2)C1` (single isomer, unassigned) [Compound 86*]: the Ki in assay [2] came out at 21.2 nM. In addition, in assay [1], the EC50 was 13 nM.

Take `CC(C)(C)n1nc(C(F)(F)F)nc1[C@H]1[C@@H]2C[C@H](N3CCC4(C3)CS(=O)(=O)C4)C[C@@H]21` (single isomer, unassigned) [Compound 78*]: the Ki in assay [2] turned out to be 33.6 nM. Further, the EC50 in assay [1] was 53 nM.

With `CCn1nc(-c2cncc(F)c2)cc1[C@H]1[C@@H]2C[C@H](N3CCC4(CC3)CS(=O)(=O)C4)C[C@@H]21` (single isomer, unassigned) [Compound 67*], in assay [2], the affinity, expressed as Ki, was 171 nM. In addition, in assay [1], the EC50 came to 37 nM.

In assay [2], `O=S1(=O)CC2(CCN([C@@H]3C[C@@H]4[C@H](C3)[C@H]4c3cc(C(F)(F)F)n(CC(F)F)n3)CC2)C1` (single isomer, unassigned) [Compound 96*] had a Ki of 438 nM. Moreover, in assay [1], the EC50 amounted to 37.9 nM.

With `CC(C)(C)n1nc(C(F)(F)F)nc1[C@H]1[C@@H]2C[C@@H](N3CCC4(C3)CS(=O)(=O)C4)C[C@@H]21` (single isomer, unassigned) [Compound 77*], the affinity in assay [2] corresponds to a Ki of 93 nM. Also, the EC50 in assay [1] was found to be 330 nM.

Regarding `CC(C)n1nc(-c2cccc(C(F)(F)F)c2)nc1[C@H]1[C@@H]2C[C@H](N3CCC4(C3)CS(=O)(=O)C4)C[C@@H]21` [Compound 52, 6-((1R,3r,5S,6r)-6-(1-isopropyl-3-(3-(trifluoromethyl)phenyl)-1H-1,2,4-triazol-5-yl)bicyclo[3.1.0]hexan-3-yl)-2-thia-6-azaspiro[3.4]octane 2,2-dioxide], in assay [2], the Ki turned out to be 10.3 nM. Besides, the 50% effective concentration (EC50) in assay [1] came out at 2.4 nM.

The molecule `O=S1(=O)CC[C@]2(CCCN([C@H]3C[C@@H]4[C@H](C3)[C@H]4c3cc(C(F)(F)F)nn3CC(F)F)C2)C1` (single isomer, unassigned) [Compound 89*] showed a Ki in assay [2] of 128 nM. Also, the EC50 in assay [1] is 270 nM.

In assay [2], `CC(C)n1nc([C@H]2CC[C@@](O)(C(F)(F)F)CC2)cc1[C@H]1[C@@H]2C[C@@H](N3CCC4(C3)CS(=O)(=O)C4)C[C@@H]21` (single isomer, unassigned) [Compound 105*] returned a Ki of 554 nM. The EC50 in assay [1] was 110 nM.

Molecule `CCn1nc(-c2cncc(F)c2)cc1[C@H]1[C@@H]2C[C@@H](N3CCC4(CC3)CS(=O)(=O)C4)C[C@@H]21` (single isomer, unassigned) [Compound 66*] had a Ki in assay [2] of 26.4 nM. For the same molecule, the EC50 in assay [1] was 35 nM.

Consider `CC(C)(C)n1nc(-c2cccc(C(F)(F)F)c2)nc1[C@H]1[C@@H]2C[C@H](N3CCC4(C3)CS(=O)(=O)C4)C[C@@H]21` (single isomer, unassigned) [Compound 76], for which the Ki in assay [2] is 11.8 nM. Further, the EC50 in assay [1] came out at 2.2 nM.

Consider `CC(C)n1nc([C@H]2CC[C@@H](C(F)(F)F)CC2)cc1[C@H]1[C@@H]2C[C@@H](N3CCC4(C3)CS(=O)(=O)C4)C[C@@H]21` (single isomer, unassigned) [Compound 106], for which, in assay [2], the Ki was found to be 13.1 nM. Also, in assay [1], the EC50 came out at 14.6 nM.

In turn, `O=S1(=O)CC[C@@]2(CCCN([C@H]3C[C@@H]4[C@H](C3)[C@H]4c3cc(C(F)(F)F)nn3CC(F)F)C2)C1` (single isomer, unassigned) [Compound 88*] came in with a Ki in assay [2] of 18.9 nM. Further, the EC50 in assay [1] was determined as 7.7 nM.

Take `CCn1nc(-c2ccccn2)cc1[C@H]1[C@@H]2C[C@@H](N3CCC4(C3)CS(=O)(=O)C4)C[C@@H]21` [Compound 72, 6-((1R,3s,5S,6r)-6-(1-Ethyl-3-(pyridin-2-yl)-1H-pyrazol-5-yl)bicyclo[3.1.0]hexan-3-yl)-2-thia-6-azaspiro[3.4]octane 2,2-dioxide]: in assay [2], the Ki came to 303 nM. The EC50 in assay [1] turned out to be 47 nM.
